In paper PMC5791972 (PLoS ONE, 2018):
Like-named read-outs stand apart in the source and are kept apart here.

Experiments:
[1] = C57BL/6, mouse, in vivo
Kv4.3 = Kv4.3 (Homo sapiens, UniProt Q9UK17); test: Ion channel selectivity patch clamp; type: cell-based; conditions: Voltage (+40 mV)
5-HT1B = 5-HT1B (Rattus norvegicus, UniProt P28564); test: biochemical
α2C (h) = target: T1, α2C (h) (Homo sapiens, UniProt P18825); type: binding; conditions: 1.0E-06 M
T1 construct: host or cells: CHO cells
T1 sequence (P18825 1-462): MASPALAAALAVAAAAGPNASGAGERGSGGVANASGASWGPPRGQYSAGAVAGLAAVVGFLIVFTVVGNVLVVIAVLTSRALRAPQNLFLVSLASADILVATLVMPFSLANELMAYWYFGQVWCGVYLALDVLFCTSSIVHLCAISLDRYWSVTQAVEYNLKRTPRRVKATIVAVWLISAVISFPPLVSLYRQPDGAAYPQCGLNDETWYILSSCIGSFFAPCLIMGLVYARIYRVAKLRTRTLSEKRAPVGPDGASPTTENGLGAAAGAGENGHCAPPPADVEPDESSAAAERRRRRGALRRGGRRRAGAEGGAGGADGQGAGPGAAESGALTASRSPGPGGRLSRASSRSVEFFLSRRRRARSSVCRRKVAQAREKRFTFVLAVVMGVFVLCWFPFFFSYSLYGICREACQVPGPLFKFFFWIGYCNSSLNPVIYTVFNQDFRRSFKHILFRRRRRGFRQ

SKCa channel = type: binding, rat; conditions: 1.0E-06 M
CCK1 (CCKA) (h) = CCK1 (CCKA) (h) (Homo sapiens, UniProt P32238); type: binding; conditions: 1.0E-06 M
MCH1 (h) = target: T2, MCH1 (h) (Homo sapiens, UniProt Q99705); type: binding; conditions: 1.0E-06 M
T2 construct: host or cells: CHO cells

COX1 (h) = target: T3, COX1 (h) (Homo sapiens, UniProt P23219); test: biochemical; conditions: 1.0E-06 M
T3 construct: Cerep (contract assay); host or cells: Sf9 cells

PDE6 (non-selective) = target: T4, PDE6 (non-selective) (Bos taurus, UniProt P11541+P23439); test: enzyme assay; type: biochemical, bovine; conditions: 1.0E-06 M
T4 construct: PDE6 bovine [3H]cGMP; tissue Cerep (contract assay); host or cells: bovine retina
T4 sequence (P11541 2-856 limits assumed): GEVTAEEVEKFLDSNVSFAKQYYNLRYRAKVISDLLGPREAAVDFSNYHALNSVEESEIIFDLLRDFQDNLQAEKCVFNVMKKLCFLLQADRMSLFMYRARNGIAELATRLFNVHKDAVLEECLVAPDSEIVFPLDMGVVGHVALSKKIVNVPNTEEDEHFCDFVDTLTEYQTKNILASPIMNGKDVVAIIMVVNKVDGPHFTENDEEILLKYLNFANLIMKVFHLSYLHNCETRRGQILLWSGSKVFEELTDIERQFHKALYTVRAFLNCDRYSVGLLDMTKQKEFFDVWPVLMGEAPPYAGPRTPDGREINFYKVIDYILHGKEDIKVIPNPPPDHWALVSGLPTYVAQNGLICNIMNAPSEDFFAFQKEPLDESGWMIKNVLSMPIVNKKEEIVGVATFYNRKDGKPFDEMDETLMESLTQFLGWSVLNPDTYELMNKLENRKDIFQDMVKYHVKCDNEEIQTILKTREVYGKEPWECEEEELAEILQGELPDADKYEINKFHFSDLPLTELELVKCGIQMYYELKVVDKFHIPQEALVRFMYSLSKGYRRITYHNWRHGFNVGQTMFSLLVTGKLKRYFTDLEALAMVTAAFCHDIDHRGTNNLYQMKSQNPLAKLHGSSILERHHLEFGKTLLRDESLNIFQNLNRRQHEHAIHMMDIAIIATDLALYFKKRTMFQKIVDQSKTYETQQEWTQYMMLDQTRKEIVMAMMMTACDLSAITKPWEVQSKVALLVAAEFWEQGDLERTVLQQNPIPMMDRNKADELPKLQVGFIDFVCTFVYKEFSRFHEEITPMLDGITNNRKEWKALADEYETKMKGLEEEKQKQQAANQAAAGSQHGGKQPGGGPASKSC
T4 sequence (P23439 2-850 limits assumed): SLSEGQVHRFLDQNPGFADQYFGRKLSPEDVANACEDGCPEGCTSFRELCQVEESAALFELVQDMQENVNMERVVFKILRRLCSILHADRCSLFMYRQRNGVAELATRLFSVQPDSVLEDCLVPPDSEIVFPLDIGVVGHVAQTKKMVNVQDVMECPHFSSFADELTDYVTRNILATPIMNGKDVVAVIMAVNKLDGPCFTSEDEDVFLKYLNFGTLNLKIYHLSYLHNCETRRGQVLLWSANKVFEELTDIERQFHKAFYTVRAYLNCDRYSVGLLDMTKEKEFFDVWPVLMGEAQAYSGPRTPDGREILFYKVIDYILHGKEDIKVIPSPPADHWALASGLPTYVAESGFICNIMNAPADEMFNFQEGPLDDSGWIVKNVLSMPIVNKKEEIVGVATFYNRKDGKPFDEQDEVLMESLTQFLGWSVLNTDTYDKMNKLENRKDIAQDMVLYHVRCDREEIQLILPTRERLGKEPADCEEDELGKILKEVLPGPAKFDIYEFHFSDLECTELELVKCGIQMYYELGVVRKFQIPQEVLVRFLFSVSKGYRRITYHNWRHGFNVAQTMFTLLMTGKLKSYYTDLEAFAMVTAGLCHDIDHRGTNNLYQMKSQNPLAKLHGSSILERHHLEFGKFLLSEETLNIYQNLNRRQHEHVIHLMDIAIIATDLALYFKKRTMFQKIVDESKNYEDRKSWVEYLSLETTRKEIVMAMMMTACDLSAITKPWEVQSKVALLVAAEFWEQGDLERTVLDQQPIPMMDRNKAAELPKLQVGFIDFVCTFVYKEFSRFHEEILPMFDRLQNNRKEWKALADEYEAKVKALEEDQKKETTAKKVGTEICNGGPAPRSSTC

T2 sequence (Q99705 whole entry): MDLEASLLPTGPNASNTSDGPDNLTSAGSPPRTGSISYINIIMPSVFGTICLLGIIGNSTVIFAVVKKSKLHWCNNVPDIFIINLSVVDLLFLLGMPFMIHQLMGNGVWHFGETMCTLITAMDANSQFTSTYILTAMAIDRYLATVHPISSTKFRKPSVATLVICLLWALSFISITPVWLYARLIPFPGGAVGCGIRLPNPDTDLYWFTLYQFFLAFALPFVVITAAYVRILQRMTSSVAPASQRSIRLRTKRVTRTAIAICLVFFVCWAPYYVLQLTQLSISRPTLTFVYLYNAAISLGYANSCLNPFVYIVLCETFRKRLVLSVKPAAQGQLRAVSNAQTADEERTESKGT
T3 sequence (P23219 24-599): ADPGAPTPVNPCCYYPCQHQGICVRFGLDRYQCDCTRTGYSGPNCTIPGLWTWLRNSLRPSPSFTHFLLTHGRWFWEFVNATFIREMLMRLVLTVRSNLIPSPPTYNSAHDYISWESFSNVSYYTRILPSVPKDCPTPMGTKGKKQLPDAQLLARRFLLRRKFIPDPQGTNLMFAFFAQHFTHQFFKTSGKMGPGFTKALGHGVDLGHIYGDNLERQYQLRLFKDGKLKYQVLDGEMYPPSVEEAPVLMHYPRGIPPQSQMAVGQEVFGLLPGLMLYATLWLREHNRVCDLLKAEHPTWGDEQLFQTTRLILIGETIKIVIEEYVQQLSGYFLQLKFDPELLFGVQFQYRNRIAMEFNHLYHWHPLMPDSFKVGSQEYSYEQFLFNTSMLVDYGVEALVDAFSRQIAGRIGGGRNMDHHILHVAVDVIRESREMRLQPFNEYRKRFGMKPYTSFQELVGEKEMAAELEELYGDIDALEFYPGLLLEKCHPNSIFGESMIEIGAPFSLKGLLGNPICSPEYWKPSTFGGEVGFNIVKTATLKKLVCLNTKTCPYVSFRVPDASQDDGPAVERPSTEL
CCK1 (CCKA) (h), sequence (P32238 whole entry): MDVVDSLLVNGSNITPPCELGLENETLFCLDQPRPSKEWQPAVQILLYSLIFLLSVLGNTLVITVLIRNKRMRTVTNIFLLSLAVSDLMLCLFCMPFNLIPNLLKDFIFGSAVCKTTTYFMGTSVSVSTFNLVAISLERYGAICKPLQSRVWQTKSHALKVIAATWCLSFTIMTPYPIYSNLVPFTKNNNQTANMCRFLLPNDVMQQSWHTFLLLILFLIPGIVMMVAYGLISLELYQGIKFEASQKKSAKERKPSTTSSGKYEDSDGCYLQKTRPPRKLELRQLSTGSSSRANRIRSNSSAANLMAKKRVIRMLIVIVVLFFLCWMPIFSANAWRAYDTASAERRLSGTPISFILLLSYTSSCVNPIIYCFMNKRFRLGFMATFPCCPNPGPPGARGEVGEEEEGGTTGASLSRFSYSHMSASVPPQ
5-HT1B, sequence (P28564 whole entry): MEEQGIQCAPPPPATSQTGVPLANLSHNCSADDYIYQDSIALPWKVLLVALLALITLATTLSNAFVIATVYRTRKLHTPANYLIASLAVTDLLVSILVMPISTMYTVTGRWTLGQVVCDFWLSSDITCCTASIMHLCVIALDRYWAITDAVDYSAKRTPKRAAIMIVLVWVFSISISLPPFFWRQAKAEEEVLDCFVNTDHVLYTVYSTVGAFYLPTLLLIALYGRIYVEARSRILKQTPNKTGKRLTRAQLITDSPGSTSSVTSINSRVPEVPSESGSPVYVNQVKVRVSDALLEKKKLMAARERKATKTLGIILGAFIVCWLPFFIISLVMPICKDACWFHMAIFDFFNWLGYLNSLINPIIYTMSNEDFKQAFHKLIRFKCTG
Kv4.3, sequence (Q9UK17 whole entry): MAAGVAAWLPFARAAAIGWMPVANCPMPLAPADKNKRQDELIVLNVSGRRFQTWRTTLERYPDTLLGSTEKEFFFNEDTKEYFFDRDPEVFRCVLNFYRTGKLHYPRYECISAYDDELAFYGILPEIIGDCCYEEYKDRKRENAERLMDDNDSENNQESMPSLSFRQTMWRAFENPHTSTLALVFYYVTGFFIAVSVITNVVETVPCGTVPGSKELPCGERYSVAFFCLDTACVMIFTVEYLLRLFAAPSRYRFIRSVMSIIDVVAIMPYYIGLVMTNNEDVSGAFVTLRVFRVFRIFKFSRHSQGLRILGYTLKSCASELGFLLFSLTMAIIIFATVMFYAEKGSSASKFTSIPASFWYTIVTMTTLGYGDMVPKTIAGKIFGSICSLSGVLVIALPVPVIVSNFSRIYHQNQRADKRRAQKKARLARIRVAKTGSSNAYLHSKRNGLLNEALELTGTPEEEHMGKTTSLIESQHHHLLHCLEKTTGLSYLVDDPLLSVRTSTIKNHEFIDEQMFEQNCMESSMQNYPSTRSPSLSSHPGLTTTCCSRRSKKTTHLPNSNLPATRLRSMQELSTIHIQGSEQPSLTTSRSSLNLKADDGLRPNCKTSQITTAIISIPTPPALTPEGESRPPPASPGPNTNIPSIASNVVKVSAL
Kv4.3, sequence (Q9NS61 whole entry partner): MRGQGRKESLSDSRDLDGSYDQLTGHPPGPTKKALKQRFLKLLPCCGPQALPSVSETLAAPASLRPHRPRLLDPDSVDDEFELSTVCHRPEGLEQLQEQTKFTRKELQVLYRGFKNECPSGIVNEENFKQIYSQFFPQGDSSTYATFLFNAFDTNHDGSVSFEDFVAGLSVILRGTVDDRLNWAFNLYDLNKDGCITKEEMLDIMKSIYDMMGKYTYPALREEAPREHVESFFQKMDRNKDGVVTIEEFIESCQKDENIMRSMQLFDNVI

SMILES: Cn1c(=O)n(CCCO)c(=O)c2c1nc(Oc1cccc(Cl)c1)n2Cc1ccc(Cl)cc1 [HC-070]
- concentration in brain ([1]; iv, 1 mg/kg, 2 h): 299 ± 11 nmol/kg
- concentration in brain tissue ([1]; po, 10 mg/kg, 2 h): 525 ± 72 nmol/kg
- unbound brain concentration ([1]; po, 10 mg/kg, 2 h): 1.5 nmol/kg
- MRTdisp ([1]; male, iv, 1 mg/kg): 1.9 h
- MRTtot ([1]; male, po, 10 mg/kg): 4.5 h
- IC50 (Kv4.3): > 1900 nM

SMILES: Cn1c(=O)n(CCCO)c(=O)c2c1nc(Oc1cccc(OC(F)(F)F)c1)n2Cc1ccc(Cl)cc1 [HC-608]
- inhibition at 1 µM (5-HT1B; read-out: % Inhibition 1st): -11%
- inhibition at 1 µM (5-HT1B; read-out: % Inhibition 2nd): -9.4%
- inhibition at 1 µM (5-HT1B; read-out: % Inhibition Mean): -10.2%
- inhibition at 1 µM (α2C (h); read-out: % Inhibition 1st): -4.1%
- inhibition at 1 µM (α2C (h); read-out: % Inhibition 2nd): -10.2%
- inhibition at 1 µM (α2C (h); read-out: % Inhibition Mean): -7.1%
- % Inhibition 1st (SKCa channel): -2.5%
- % Inhibition 2nd (SKCa channel): -4.7%
- % Inhibition Mean (SKCa channel): -3.6%
- inhibition at 1 µM (CCK1 (CCKA) (h); read-out: % Inhibition 1st): -11.2%
- inhibition at 1 µM (CCK1 (CCKA) (h); read-out: % Inhibition 2nd): -0.4%
- inhibition at 1 µM (CCK1 (CCKA) (h); read-out: % Inhibition Mean): -5.8%
- inhibition at 1 µM (MCH1 (h); read-out: % Inhibition 1st): 7.9%
- inhibition at 1 µM (MCH1 (h); read-out: % Inhibition 2nd): -27.2%
- inhibition at 1 µM (MCH1 (h); read-out: % Inhibition Mean): -9.6%
- inhibition at 1 µM (COX1 (h); read-out: % Inhibition 1st): -1.5%
- inhibition at 1 µM (COX1 (h); read-out: % Inhibition 2nd): 27.2%
- inhibition at 1 µM (COX1 (h); read-out: % Inhibition Mean): 12.9%
- inhibition at 1 µM (PDE6 (non-selective); read-out: % Inhibition 1st): 25.3%
- inhibition at 1 µM (PDE6 (non-selective); read-out: % Inhibition 2nd): 8.8%
- inhibition at 1 µM (PDE6 (non-selective); read-out: % Inhibition Mean): 17%
